Structures are written as SMILES.

One may read the IC50 as the midpoint of a concentration-inhibition curve.

Series [1] can be described thus: Reversal of P-gp mediated multidrug resistance in human DU145-TxR cells overexpressing P-gp assessed as potentiation of paclitaxel-induced cytotoxicity by measuring paclitaxel IC50 at 3 uM after 48 hrs by MTT assay (Rvb = 2120 nM).
A short description of series [2]: Reversal of P-gp mediated multidrug resistance in human DU145-TxR cells overexpressing P-gp assessed as potentiation of paclitaxel-induced cytotoxicity by measuring paclitaxel IC50 at 5 uM after 48 hrs by MTT assay (Rvb = 2120 nM). (Tetrazolium assays rely on reduction of a dye to a coloured formazan, in cell work by metabolically active cells.)
Series [3] in a line: Reversal of P-gp mediated multidrug resistance in human DU145-TxR cells overexpressing P-gp assessed as potentiation of paclitaxel-induced cytotoxicity by measuring paclitaxel IC50 at 7 uM after 48 hrs by MTT assay (Rvb = 2120 nM).
A short description of series [4]: Reversal of P-gp mediated multidrug resistance in human DU145-TxR cells overexpressing P-gp assessed as potentiation of paclitaxel-induced cytotoxicity by measuring paclitaxel IC50 at 10 uM after 48 hrs by MTT assay (Rvb = 2120 nM).

Regarding `Cc1cc(C)c(-c2cc(NC(=O)CSCC(=O)Nc3ccc4ncsc4c3)n(-c3ccccc3)n2)cc1C`, the IC50 in series [1] worked out at 172 nM; in series [2] it was 5.7 nM; in series [3], 2.9 nM; in series [4] it was 0.78 nM.

Take `Cc1cc(C)c(-c2cc(NC(=O)CSc3cccc(NC(=O)c4cncc(Br)c4)c3)n(-c3ccccc3)n2)cc1C`: the IC50 is 56 nM in series [1], 20 nM in series [2], 9 nM in series [3] and 6 nM in series [4].

Turning to `Cc1cc(C)c(-c2cc(NC(=O)CSCC(=O)Nc3ccc4ccccc4c3)n(-c3ccccc3)n2)cc1C`, the IC50 in series [1] is 153 nM; in series [2], 46 nM; in series [3], 7 nM; in series [4], 2 nM.

On to `COc1cc(NC(=O)CSCC(=O)Nc2cc(-c3cc(C)c(C)cc3C)nn2-c2ccccc2)cc(OC)c1OC`, for which the IC50 in series [1] worked out at 185 nM; in series [2], 1.9 nM; in series [3], 0.64 nM; in series [4], 0.07 nM.

`Cc1cc(C)c(-c2cc(NC(=O)CSc3nnc4c(n3)[nH]c3ccccc34)n(-c3ccccc3)n2)cc1C`: the IC50 turned out to be 426 nM in series [1], 21 nM in series [2], 17 nM in series [3] and 17 nM in series [4].

As to `Cc1cc(C)c(-c2cc(NC(=O)CSCC(=O)NCc3ccc(F)cc3)n(-c3ccccc3)n2)cc1C`, the IC50 turned out to be 458 nM in series [1], 379 nM in series [2], 192 nM in series [3] and 131 nM in series [4].

In the case of `Cc1cc(C)c(-c2cc(NC(=O)CSCC(=O)N3c4ccccc4CCc4ccccc43)n(-c3ccccc3)n2)cc1C`, the IC50 worked out at 164 nM in series [1], 52 nM in series [2], 6 nM in series [3] and 4 nM in series [4].

With `Cc1cc(C)c(-c2cc(NC(=O)CSc3n[nH]c(C4CC4)n3)n(-c3ccccc3)n2)cc1C`, the IC50 in series [1] was 629 nM; in series [2], 194 nM; in series [3] it was 59 nM; in series [4], 21 nM.

With `Cc1cc(C)c(-c2cc(NC(=O)CSCC(=O)NC(c3ccccc3)c3ccccc3)n(-c3ccccc3)n2)cc1C`, the concentration for half-maximal inhibition (IC50) in series [1] was 160 nM; in series [2], 56 nM; in series [3], 16 nM; in series [4], 11 nM.

For `Cc1cc(C)c(-c2cc(NC(=O)CSCC(=O)c3ccc4c(c3)Cc3ccccc3-4)n(-c3ccccc3)n2)cc1C`, the IC50 in series [1] is 266 nM; in series [2] it was 154 nM; in series [3] it was 62 nM; in series [4], 57 nM.

With `Cc1cc(C)c(-c2cc(NC(=O)CSCC(=O)NC34CC5CC(CC(C5)C3)C4)n(-c3ccccc3)n2)cc1C`, the IC50 came to 231 nM in series [1], 109 nM in series [2], 21 nM in series [3] and 13 nM in series [4].

These data come from BindingDB's records for doi:10.1021/acs.jmedchem.9b00966 (2019).
